Measured values as given in patent publication US8029764B2, “Methods for detection of colorectal cancer” (The Johns Hopkins University, priority 2001, dated 2011).

Tested on: colorectal tissue transcripts
Assay: SAGE of normal, adenoma and cancer colorectal tissue (transcript tag counts)
Set-up: species or system human
In short: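 Tag counts reflect transcript abundance, each mRNA represented by a 15-base tag near its 3′ end. Excluding MHC tags, linkers and duplicate ditags, libraries were compared statistically: two each of normal epithelium, FAP-derived adenomas (>70% neoplastic) and carcinomas.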

[1] = normal colorectal tissue library 1
[2] = normal colorectal tissue library 2

Sequence | AD1 (SAGE tag count) (adenoma library 1) | AD2 (SAGE tag count) (adenoma library 2) | CA1 (SAGE tag count) (cancer library 1) | CA2 (SAGE tag count) (cancer library 2) | NC1 (SAGE tag count) [1] | NC2 (SAGE tag count) [2] | AD1 (SAGE tag count) (SAGE library AD1) | AD2 (SAGE tag count) (SAGE library AD2) | CA1 (SAGE tag count) (SAGE library CA1) | CA2 (SAGE tag count) (SAGE library CA2) | NC1 (SAGE tag count) (SAGE library NC1) | NC2 (SAGE tag count) (SAGE library NC2)
TCAGAGCGCT (chemistry not fully specified) | 0 | 7 | 0 | 1 | 5 | 21 |  |  |  |  |  | 
GAGCACCGTG (chemistry not fully specified) |  |  |  |  |  |  | 1 | 0 | 0 | 1 | 7 | 4
GCAGGAGGTG (chemistry not fully specified; the letters are possibly those of the target site) |  |  |  |  |  |  | 0 | 0 | 0 | 1 | 2 | 13
CCTCCAGCTA (chemistry not fully specified) |  |  |  |  |  |  | 142 | 125 | 131 | 147 | 715 | 458
CAGTGCGTTC (chemistry not fully specified) |  |  |  |  |  |  | 0 | 0 | 3 | 0 | 12 | 3
TAATTTGCAT (chemistry not fully specified) | 1 | 1 | 2 | 0 | 25 | 2 |  |  |  |  |  | 
CCAGGGGAGA (chemistry not fully specified) |  |  |  |  |  |  | 24 | 22 | 10 | 20 | 45 | 66
TTCTGGTGCG (chemistry not fully specified) | 0 | 0 | 1 | 0 | 8 | 2 |  |  |  |  |  | 
ACCCACGTCA (chemistry not fully specified) |  |  |  |  |  |  | 3 | 5 | 3 | 1 | 22 | 10
TGAGTGACAG (chemistry not fully specified) | 0 | 6 | 3 | 7 | 9 | 68 |  |  |  |  |  | 
TAATCCCAGC (chemistry not fully specified) | 8 | 7 | 16 | 13 | 37 | 33 |  |  |  |  |  | 
GTATTGGGGC (chemistry not fully specified) |  |  |  |  |  |  | 0 | 0 | 0 | 0 | 5 | 7
GGATGGCTTA (chemistry not fully specified) |  |  |  |  |  |  | 2 | 1 | 1 | 1 | 25 | 5
CTGGGCCTCT (chemistry not fully specified) |  |  |  |  |  |  | 2 | 2 | 3 | 3 | 22 | 22
GATCCCAACT (chemistry not fully specified) |  |  |  |  |  |  | 5 | 7 | 1 | 1 | 9 | 29
CTTGACATAC (chemistry not fully specified) |  |  |  |  |  |  | 4 | 4 | 0 | 0 | 18 | 20
CCTTCAAATC (chemistry not fully specified) |  |  |  |  |  |  | 0 | 0 | 1 | 0 | 29 | 17
ACACCCATCA (chemistry not fully specified) |  |  |  |  |  |  | 1 | 0 | 5 | 3 | 2 | 27
GCACCTGTCG (chemistry not fully specified) |  |  |  |  |  |  | 0 | 0 | 1 | 0 | 2 | 9

Sequence | AD1 (SAGE tag count) (adenoma library 1) | AD2 (SAGE tag count) (adenoma library 2) | CA1 (SAGE tag count) (cancer library 1) | CA2 (SAGE tag count) (cancer library 2) | NC1 (SAGE tag count) [1] | NC2 (SAGE tag count) [2] | AD1 (SAGE tag count) (SAGE library AD1) | AD2 (SAGE tag count) (SAGE library AD2) | CA1 (SAGE tag count) (SAGE library CA1) | CA2 (SAGE tag count) (SAGE library CA2) | NC1 (SAGE tag count) (SAGE library NC1) | NC2 (SAGE tag count) (SAGE library NC2)
TGACTAATTG (chemistry not fully specified) | 2 | 0 | 0 | 3 | 7 | 9 |  |  |  |  |  | 
TACTCGGCCA (chemistry not fully specified) | 0 | 0 | 1 | 0 | 10 | 5 |  |  |  |  |  | 
CCCCCTGCAT (chemistry not fully specified) |  |  |  |  |  |  | 0 | 0 | 0 | 0 | 5 | 4
TTTAACGGCC (chemistry not fully specified) | 36 | 35 | 11 | 30 | 93 | 67 |  |  |  |  |  | 
ACTCTTGTTG (chemistry not fully specified) |  |  |  |  |  |  | 0 | 0 | 0 | 0 | 7 | 2
TGATCTCTGT (chemistry not fully specified) | 1 | 0 | 1 | 1 | 6 | 7 |  |  |  |  |  | 
TGGCGCGTGT (chemistry not fully specified) | 0 | 0 | 9 | 5 | 25 | 8 |  |  |  |  |  | 
CTAGCCTCAC (chemistry not fully specified) |  |  |  |  |  |  | 30 | 53 | 36 | 58 | 172 | 90
GATATGTAAA (chemistry not fully specified) |  |  |  |  |  |  | 0 | 0 | 0 | 0 | 1 | 10
ACCCCCCCGC (chemistry not fully specified) |  |  |  |  |  |  | 7 | 13 | 16 | 6 | 44 | 38
ACCTGGGGAG (chemistry not fully specified) |  |  |  |  |  |  | 1 | 3 | 4 | 3 | 35 | 11
GGGGCAGGGC (chemistry not fully specified) |  |  |  |  |  |  | 27 | 10 | 15 | 31 | 48 | 64
CTTCTTGCCC (chemistry not fully specified) |  |  |  |  |  |  | 2 | 2 | 0 | 1 | 29 | 2
TAGACTAGCA (chemistry not fully specified) | 6 | 6 | 22 | 4 | 31 | 27 |  |  |  |  |  | 
GACATCAAGT (chemistry not fully specified) |  |  |  |  |  |  | 23 | 14 | 47 | 17 | 198 | 87
TCGGAGCTGT (chemistry not fully specified) | 9 | 6 | 3 | 0 | 21 | 20 |  |  |  |  |  | 
ACTGTGGCGG (chemistry not fully specified) |  |  |  |  |  |  | 9 | 12 | 9 | 4 | 17 | 34
GTGGGGGCGC (chemistry not fully specified) |  |  |  |  |  |  | 2 | 0 | 1 | 0 | 5 | 22
GCGCAGAGGT (chemistry not fully specified) |  |  |  |  |  |  | 1 | 0 | 0 | 1 | 2 | 16
